From patent US7498319B2, “Phosphinic acid derivatives” (Novartis AG, priority 2003, dated 2009)
Structures can show the parent of a compound that is named as a salt.

Experiments:
[1] = tested on: "epilepsy-like" discharges of pyramidal cells; test: penicillin-induced "epileptic" hippocampus section preparation (electrophysiology); details: in vitro; concentration of 6 μM

SMILES	melting point	effect on "epilepsy-like" discharges of pyramidal cells [1]
COc1cc(CNC[C@H](O)CP(=O)(O)CC2CCCCC2)ccn1 (as salt: hydrochloride) [Example 2, {3-[(2-methoxy-4-pyridylmethyl)-amino]-2-(S)-hydroxy-propyl}-(cyclohexylmethyl)-phosphinic acid]	159 to 160 °C	–
COc1cc(CNC[C@H](O)CP(=O)(O)Cc2ccccc2)ccn1 [Example 4, {3-[(2-methoxy-4-pyridylmethyl)-amino]-2-(S)-hydroxy-propyl}-(benzyl)phosphinic acid]	192 to 195 °C	–
O=c1cc(CNC[C@H](O)CP(=O)(O)Cc2ccccc2)cc[nH]1 (as salt: hydrochloride) [Example 10, {2-(S)-hydroxy-3-[(2-oxo-1,2-dihydro-pyridin-4-ylmethyl)-amino]-propyl}-(benzyl)-phosphinic acid]	226 to 228 °C	–
NCC(CC(=O)O)c1ccc(Cl)cc1 (stereo not shown) [baclofen]	–	inhibits
